PubChem BioAssay (NCI)
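These data come from cells grown in 96-well plates and exposed to compound for 48 hours at five concentrations. Abbreviation: GI50, concentration required for 50% inhibition of growth. TGI denotes the concentration required for complete inhibition of growth.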

What was measured:
Experiment in all cases: NCI-60 cell line screen, 48 h
786-0 renal = system: 786-0 renal
A498 renal = system: A498 renal
A549 NSCLC = system: A549 NSCLC
ACHN renal = system: ACHN renal
BT-549 breast = system: BT-549 breast
CAKI-1 renal = system: CAKI-1 renal
CCRF-CEM leukemia = system: CCRF-CEM leukemia
COLO 205 colon = system: COLO 205 colon
DU-145 prostate = system: DU-145 prostate
EKVX NSCLC = system: EKVX NSCLC
HCC-2998 colon = system: HCC-2998 colon
HCT-116 colon = system: HCT-116 colon
HCT-15 colon = system: HCT-15 colon
HL-60(TB) leukemia = system: HL-60(TB) leukemia
HOP-62 NSCLC = system: HOP-62 NSCLC
HOP-92 NSCLC = system: HOP-92 NSCLC
HS 578T breast = system: HS 578T breast
HT29 colon = system: HT29 colon
IGROV1 ovarian = system: IGROV1 ovarian
K-562 leukemia = system: K-562 leukemia
KM12 colon = system: KM12 colon
LOX IMVI melanoma = system: LOX IMVI melanoma
M14 melanoma = system: M14 melanoma
MALME-3M melanoma = system: MALME-3M melanoma
MCF7 breast = system: MCF7 breast
MDA-MB-231 breast = system: MDA-MB-231 breast
MDA-MB-435 = system: MDA-MB-435
MOLT-4 leukemia = system: MOLT-4 leukemia
NCI-H226 lung = system: NCI-H226 lung
NCI-H23 lung = system: NCI-H23 lung
NCI-H460 lung = system: NCI-H460 lung
NCI-H522 lung = system: NCI-H522 lung
NCI/ADR-RES ovarian = system: NCI/ADR-RES ovarian
OVCAR-3 ovarian = system: OVCAR-3 ovarian
OVCAR-4 ovarian = system: OVCAR-4 ovarian
OVCAR-5 ovarian = system: OVCAR-5 ovarian
OVCAR-8 ovarian = system: OVCAR-8 ovarian
PC-3 prostate = system: PC-3 prostate
RPMI-8226 leukemia = system: RPMI-8226 leukemia
RXF 393 renal = system: RXF 393 renal
SF-268 CNS = system: SF-268 CNS
SF-295 CNS = system: SF-295 CNS
SF-539 CNS = system: SF-539 CNS
SK-MEL-2 melanoma = system: SK-MEL-2 melanoma
SK-MEL-28 melanoma = system: SK-MEL-28 melanoma
SK-MEL-5 melanoma = system: SK-MEL-5 melanoma
SK-OV-3 ovarian = system: SK-OV-3 ovarian
SN12C renal = system: SN12C renal
SNB-19 CNS = system: SNB-19 CNS
SNB-75 CNS = system: SNB-75 CNS
SR leukemia = system: SR leukemia
SW-620 colon = system: SW-620 colon
T-47D breast = system: T-47D breast
TK-10 renal = system: TK-10 renal
U251 CNS = system: U251 CNS
UACC-257 melanoma = system: UACC-257 melanoma
UACC-62 melanoma = system: UACC-62 melanoma
UO-31 renal = system: UO-31 renal

CN(C)CCCOc1ccc(NC2=C(Cl)C(=O)C(Nc3ccc(OCCCN(C)C)cc3)=C(Cl)C2=O)cc1
GI50 (786-0 renal): 1.59 µM
TGI (786-0 renal): 2.98 µM
GI50 (A498 renal): 1.66 µM
TGI (A498 renal): 3.32 µM
GI50 (A549 NSCLC): 0.731 µM
TGI (A549 NSCLC): 2.12 µM
GI50 (ACHN renal): 1.66 µM
TGI (ACHN renal): 3.02 µM
GI50 (BT-549 breast): 1.71 µM
TGI (BT-549 breast): 3.08 µM
GI50 (CAKI-1 renal): 1.91 µM
TGI (CAKI-1 renal): 3.53 µM
GI50 (CCRF-CEM leukemia): 0.272 µM
TGI (CCRF-CEM leukemia): 2.95 µM
GI50 (COLO 205 colon): 0.239 µM
TGI (COLO 205 colon): 0.589 µM
GI50 (DU-145 prostate): 0.563 µM
TGI (DU-145 prostate): 1.13 µM
GI50 (EKVX NSCLC): 0.582 µM
TGI (EKVX NSCLC): 1.26 µM
GI50 (HCC-2998 colon): 0.769 µM
TGI (HCC-2998 colon): 2.09 µM
GI50 (HCT-116 colon): 0.183 µM
TGI (HCT-116 colon): 0.368 µM
GI50 (HCT-15 colon): 0.411 µM
TGI (HCT-15 colon): 0.958 µM
GI50 (HL-60(TB) leukemia): 0.732 µM
TGI (HL-60(TB) leukemia): 2.02 µM
GI50 (HOP-62 NSCLC): 1.83 µM
TGI (HOP-62 NSCLC): 3.31 µM
GI50 (HOP-92 NSCLC): 0.567 µM
TGI (HOP-92 NSCLC): 1.08 µM
GI50 (HS 578T breast): 1.59 µM
TGI (HS 578T breast): 4.2 µM
GI50 (HT29 colon): 0.237 µM
TGI (HT29 colon): 0.657 µM
GI50 (IGROV1 ovarian): 0.544 µM
TGI (IGROV1 ovarian): 1.11 µM
GI50 (K-562 leukemia): 0.276 µM
TGI (K-562 leukemia): 0.798 µM
GI50 (KM12 colon): 0.801 µM
TGI (KM12 colon): 2.25 µM
GI50 (LOX IMVI melanoma): 0.422 µM
TGI (LOX IMVI melanoma): 0.902 µM
GI50 (M14 melanoma): 1.45 µM
TGI (M14 melanoma): 2.9 µM
GI50 (MALME-3M melanoma): 0.336 µM
TGI (MALME-3M melanoma): 0.935 µM
GI50 (MCF7 breast): 0.15 µM
TGI (MCF7 breast): 0.376 µM
GI50 (MDA-MB-231 breast): 0.656 µM
TGI (MDA-MB-231 breast): 1.49 µM
GI50 (MDA-MB-435): 0.501 µM
TGI (MDA-MB-435): 1.05 µM
GI50 (MOLT-4 leukemia): 0.325 µM
TGI (MOLT-4 leukemia): 2.38 µM
GI50 (NCI-H226 lung): 1.92 µM
TGI (NCI-H226 lung): 3.83 µM
GI50 (NCI-H23 lung): 0.292 µM
TGI (NCI-H23 lung): 1.02 µM
GI50 (NCI-H460 lung): 0.872 µM
TGI (NCI-H460 lung): 2.55 µM
GI50 (NCI-H522 lung): 0.236 µM
TGI (NCI-H522 lung): 0.602 µM
GI50 (NCI/ADR-RES ovarian): 1.68 µM
TGI (NCI/ADR-RES ovarian): 4.72 µM
GI50 (OVCAR-3 ovarian): 0.187 µM
TGI (OVCAR-3 ovarian): 0.353 µM
GI50 (OVCAR-4 ovarian): 0.14 µM
TGI (OVCAR-4 ovarian): 0.27 µM
GI50 (OVCAR-5 ovarian): 1.69 µM
TGI (OVCAR-5 ovarian): 3.18 µM
GI50 (OVCAR-8 ovarian): 0.446 µM
TGI (OVCAR-8 ovarian): 1.04 µM
GI50 (PC-3 prostate): 1.23 µM
TGI (PC-3 prostate): 2.76 µM
GI50 (RPMI-8226 leukemia): 2.01 µM
TGI (RPMI-8226 leukemia): 5.22 µM
GI50 (RXF 393 renal): 1.19 µM
TGI (RXF 393 renal): 2.45 µM
GI50 (SF-268 CNS): 1.56 µM
TGI (SF-268 CNS): 3.17 µM
GI50 (SF-295 CNS): 1.67 µM
TGI (SF-295 CNS): 3.19 µM
GI50 (SF-539 CNS): 1.79 µM
TGI (SF-539 CNS): 3.19 µM
GI50 (SK-MEL-2 melanoma): 1.66 µM
TGI (SK-MEL-2 melanoma): 3.31 µM
GI50 (SK-MEL-28 melanoma): 1.74 µM
TGI (SK-MEL-28 melanoma): 3.16 µM
GI50 (SK-MEL-5 melanoma): 1.31 µM
TGI (SK-MEL-5 melanoma): 2.59 µM
GI50 (SK-OV-3 ovarian): 1.82 µM
TGI (SK-OV-3 ovarian): 3.34 µM
GI50 (SN12C renal): 0.548 µM
TGI (SN12C renal): 1.05 µM
GI50 (SNB-19 CNS): 1.73 µM
TGI (SNB-19 CNS): 3.39 µM
GI50 (SNB-75 CNS): 1.78 µM
TGI (SNB-75 CNS): 3.4 µM
GI50 (SR leukemia): 0.312 µM
TGI (SR leukemia): 3.25 µM
GI50 (SW-620 colon): 0.297 µM
TGI (SW-620 colon): 0.809 µM
GI50 (T-47D breast): 1.96 µM
TGI (T-47D breast): 4.96 µM
GI50 (TK-10 renal): 1.99 µM
TGI (TK-10 renal): 3.41 µM
GI50 (U251 CNS): 1.53 µM
TGI (U251 CNS): 2.94 µM
GI50 (UACC-257 melanoma): 0.793 µM
TGI (UACC-257 melanoma): 2.29 µM
GI50 (UACC-62 melanoma): 1.61 µM
TGI (UACC-62 melanoma): 3.09 µM
GI50 (UO-31 renal): 1.1 µM
TGI (UO-31 renal): 2.44 µM

O=[N+]([O-])/C=C/c1ccc2ccccc2c1
TGI (786-0 renal): > 20.4 µM
TGI (A498 renal): 25.7 µM
TGI (A549 NSCLC): > 58.5 µM
TGI (ACHN renal): 4.17 µM
TGI (BT-549 breast): 7.8 µM
TGI (CAKI-1 renal): 25.7 µM
TGI (CCRF-CEM leukemia): > 100 µM
TGI (COLO 205 colon): 5.97 µM
TGI (DU-145 prostate): > 35.9 µM
TGI (EKVX NSCLC): > 55 µM
TGI (HCC-2998 colon): 0.678 µM
TGI (HL-60(TB) leukemia): 7.8 µM
TGI (HOP-62 NSCLC): > 51.5 µM
TGI (HOP-92 NSCLC): 21.1 µM
TGI (HS 578T breast): > 61.8 µM
TGI (IGROV1 ovarian): > 21.8 µM
TGI (K-562 leukemia): 9.42 µM
TGI (KM12 colon): 3.09 µM
TGI (LOX IMVI melanoma): 7.81 µM
TGI (M14 melanoma): > 23.7 µM
TGI (MALME-3M melanoma): 33.9 µM
TGI (MCF7 breast): > 100 µM
TGI (MDA-MB-231 breast): 13.4 µM
TGI (MDA-MB-435): 4.58 µM
TGI (NCI-H226 lung): 21.3 µM
TGI (NCI-H23 lung): > 23.5 µM
TGI (NCI-H460 lung): > 23.5 µM
TGI (NCI-H522 lung): 33.1 µM
TGI (NCI/ADR-RES ovarian): > 28 µM
TGI (OVCAR-3 ovarian): > 100 µM
TGI (OVCAR-4 ovarian): 26 µM
TGI (OVCAR-5 ovarian): > 30.1 µM
TGI (OVCAR-8 ovarian): > 21.2 µM
TGI (PC-3 prostate): 14 µM
TGI (RPMI-8226 leukemia): > 100 µM
TGI (RXF 393 renal): 5.72 µM
TGI (SF-268 CNS): > 35.6 µM
TGI (SF-295 CNS): 19.4 µM
TGI (SF-539 CNS): > 100 µM
TGI (SK-MEL-2 melanoma): > 61.6 µM
TGI (SK-MEL-28 melanoma): 4.65 µM
TGI (SK-MEL-5 melanoma): 13.3 µM
TGI (SK-OV-3 ovarian): 9.22 µM
TGI (SN12C renal): 22.7 µM
TGI (SNB-19 CNS): 5.13 µM
TGI (SNB-75 CNS): 5.17 µM
TGI (SR leukemia): > 100 µM
TGI (SW-620 colon): 3.99 µM
TGI (T-47D breast): 2.13 µM
TGI (TK-10 renal): 25.8 µM
TGI (U251 CNS): 3.08 µM
TGI (UACC-257 melanoma): 6.63 µM
TGI (UACC-62 melanoma): 32.8 µM
TGI (UO-31 renal): 35.1 µM
